Patent publication US8476455B2, “1-N-phenyl-amino-1h-imidazole derivatives and pharmaceutical compositions containing them” (Laboratoire Theramex, priority 2003, dated 2013)

Legend:
human aromatase [1] = molecular target: T1, human aromatase (Homo sapiens, UniProt P11511); test: Dual aromatase and steroid sulfatase activities in JEG-3 cells: aromatase readout; type: cell-based; conditions: footnote c: dual aromatase and sulfatase activity, nd: not detected, read-out: Aromatase activity IC50 (nM) ± S.E.M.
T1 construct: The JEG-3 cell line, derived from a human placental choriocarcinoma, constitutively overexpresses human aromatase; endogenous in cells; host or cells: JEG-3 (human placental choriocarcinoma)
T1 sequence (P11511 1-503): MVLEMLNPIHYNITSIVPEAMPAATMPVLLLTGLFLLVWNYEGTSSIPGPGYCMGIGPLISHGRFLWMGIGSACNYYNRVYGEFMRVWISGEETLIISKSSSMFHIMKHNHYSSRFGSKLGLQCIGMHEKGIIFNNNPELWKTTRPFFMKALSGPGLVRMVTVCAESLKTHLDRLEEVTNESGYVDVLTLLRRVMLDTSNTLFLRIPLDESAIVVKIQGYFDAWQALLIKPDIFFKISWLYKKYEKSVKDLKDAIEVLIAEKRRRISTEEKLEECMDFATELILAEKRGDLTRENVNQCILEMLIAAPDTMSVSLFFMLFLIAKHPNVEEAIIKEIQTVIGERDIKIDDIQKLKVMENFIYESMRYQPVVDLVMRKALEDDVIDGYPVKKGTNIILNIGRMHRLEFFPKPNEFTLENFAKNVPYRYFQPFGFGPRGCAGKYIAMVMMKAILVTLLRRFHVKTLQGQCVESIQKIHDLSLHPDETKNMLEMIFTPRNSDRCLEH
Description: Assays were carried out with cells in logarithmic growth phase on 96-well microplates. 24 h before studies, cells were seeded in decomplemented fetal calf serum (dFCS) supplemented medium. The medium was removed 24 h later and cells were rinsed with PBS to eliminate any trace of dFCS. Then, ^3H-E1S was added in dFCS free medium, followed by test compounds at concentrations ranging from 10^−12 M to 10^−5 M. After 4 h of treatment, the medium was transferred into 96-deep-well microplates and centrifuged at 200×g for 10 min to pellet cells before toluene extraction. A fraction of the medium was used for toluene extraction in order to separate the conjugated substrate from non-conjugated products. The radioactivity in the toluene phase was measured by liquid scintillation counting. […] Finally, estrone sulfatase activity was expressed in pmoles of ^3H-E1+^3H-E2 formed/4 hours/mg DNA and estrone sulfatase inhibition as a percentage of control activity without inhibitor.
In order to evaluate the inhibitory potency of DASI compounds in parallel on both human aromatase and steroid sulfatase activities, a new in vitro model was set up using JEG-3 cells. The experimental conditions of the steroid sulfatase model previously described was adopted with slight modifications: the presence of the two substrates ^3-HE1S and 1β-^3H-androstenedione into the medium and an incubation period of 2 hours. Results were expressed in pmoles of product formed (^3H-E1+^3H-E2 or ^3H2O)/2 hours/mg DNA (Table 1).

human aromatase [2] = molecular target: T1, human aromatase; test: Aromatase activity alone, tritiated water method in JEG-3 cells; type: cell-based; conditions: footnote a: aromatase activity alone, nd: not detected, read-out: Aromatase activity IC50 (nM) ± S.E.M.
Description: The JEG-3 cell line, derived from a human placental choriocarcinoma, constitutively overexpresses human aromatase and represents a relevant model for assaying putative aromatase inhibitors in vitro. Aromatase activity was determined by the tritiated water method. In brief, cells were first seeded into 96-well microplates in decomplemented fetal calf serum (dFCS) supplemented medium. 24 hours later, cells were rinsed and fresh medium containing 1β-^3H-androstenedione as aromatase substrate was added together with test compounds at concentrations ranging from 10^−12 M to 10^−5 M. After 2 hours of incubation, a fraction of the medium was transferred to homologous new 96-well microplates and a dextran-coated charcoal solution was added to each well. Following standing on ice for 10 minutes, microplates were centrifuged (1500 g; 4° C.). All steroids, including the radioactive substrate and the newly biosynthesized estrogens, were adsorbed on charcoal; only ^3H-water specifically formed during aromatisation of 1β-^3H-androstenedione, remained in the supernatant. The radioactivity in the supernatant was measured by liquid scintillation counting. In parallel, cell solubilization was performed in ethylenediamine tetraacetate solution. […] Finally, aromatase activity was expressed in fmoles of ^3H-water formed/2 hours/μg DNA and aromatase inhibition as a percentage of control activity without inhibitor.

Compound	melting point [°C]	IC50 (human aromatase [1]) [nM]	IC50 (human aromatase [2]) [nM]
N#Cc1ccc(N(Cc2ccc(Cl)nc2)n2ccnc2)cc1 [Ex 18, 4-{N-[(6-chloropyridin-3-yl)methyl]-N-(1H-imidazol-1-yl)amino}benzonitrile]	156		
N#Cc1ccc(N(c2ccc(NS(N)(=O)=O)cc2)n2ccnc2)cc1 [Ex 49, N-{4-[N-(4-cyanophenyl)-N-(1H-imidazol-1-yl)amino]phenyl}sulfamide]	121		
N#Cc1ccc(N(Cc2ccc(O)c(C(=O)O)c2)n2ccnc2)cc1 [Ex 62, 5-{[N-(4-cyanophenyl)-N-(1H-imidazol-1-yl)amino]methyl}-2-hydroxybenzoic acid]		81.8	
N#Cc1ccc(N(C(=O)Cc2csc3cc(O)ccc23)n2ccnc2)cc1 [Ex 34, N-(4-cyanophenyl)-N-(1H-imidazol-1-yl)-2-(6-hydroxy-benzothien-3-yl)acetamide]	179		
N#Cc1ccc(N(Cc2ccc3c(c2)CNS(=O)(=O)O3)n2ccnc2)cc1 [Ex 61, 4-[N-[(2,2-dioxido-3,4-dihydro-1,2,3-benzoxathiazin-6-yl)methyl]-N-(1H-imidazol-1-yl)amino]benzonitrile]			1.06 ± 0.21
N#Cc1ccc(N(Cc2cc3ccc(OS(N)(=O)=O)cc3s2)n2ccnc2)cc1 [Ex 59, Sulfamic acid 2-{[N-(4-cyanophenyl)-N-(1H-imidazol-1yl)amino]methyl}-benzothien-6-yl ester]	178		
N#Cc1ccc(N(Cc2ccc(S(N)(=O)=O)cc2)n2ccnc2)cc1 [Ex 19, 4-{[N-(4-cyanophenyl)-N-(1H-imidazol-1-yl)amino]methyl}benzene sulfonamide]	150		
N#Cc1ccc(N(Cc2ccc(O)c(Br)c2)n2ccnc2)cc1 [Ex 13, 4-[N-(3-bromo-4-hydroxyphenylmethyl)-N-(1H-imidazol-1-yl)amino]benzonitrile]	198	0.05 ± 0.02	0.17 ± 0.03
N#Cc1ccc(N(n2ccnc2)S(=O)(=O)c2ccc(O)cc2)cc1 [Ex 37, N-(4-cyanophenyl)-N-(1H-imidazol-1-yl)-4-hydroxybenzensulfonamide]	248	52 ± 9.6	
N#Cc1ccc(N(C(=O)c2cc3cc(N)ccc3s2)n2ccnc2)cc1 [Ex 41, 5-Amino-[N-(4-cyanophenyl)-N-(1H-imidazol-1-yl)]-benzothiophene-2-carboxamide]		4.3	
N#Cc1ccc(N(C2=CS(=O)(=O)c3cc(OS(N)(=O)=O)ccc32)n2ccnc2)cc1 [Ex 56, Sulfamic acid 3-[N-(4-cyanophenyl)-N-(1H-imidazol-1yl)amino]-1,1-dioxido-benzothien-6-yl ester]	172		
N#Cc1ccc(N(Cc2cc3ccc(O)cc3s2)n2ccnc2)cc1 [Ex 39, 4-[N-[(6-hydroxy-benzothien-2-yl)methyl]-N-(1H-imidazol-1-yl)amino]benzonitrile]	230		
N#Cc1ccc(N(Cc2ccc(O)cc2)n2ccnc2)cc1 [Ex 11, 4-[N-(4-hydroxyphenylmethyl)-N-(1H-imidazol-1-yl)amino]benzonitrile]			0.17 ± 0.01
COc1cc(CN(c2ccc(C#N)cc2)n2ccnc2)ccc1O [Ex 14, 4-[N-(4-hydroxy-3-methoxyphenylmethyl)-N-(1H-imidazol-1-yl)amino]benzonitrile]	215		0.21 ± 0.05
N#Cc1ccc(N(CCOc2ccc(O)cc2)n2ccnc2)cc1 [Ex 36, 4-{N-[2-(4-hydroxyphenoxy)ethyl]-N-(1H-imidazol-1-yl)amino}benzonitrile]	188	0.61 ± 0.21	
N#Cc1ccc(N(Cc2ccc(O)c(C=O)c2)n2ccnc2)cc1 [Ex 16, 4-[N-(3-formyl-4-hydroxyphenylmethyl)-N-(1H-imidazol-1-yl)amino]benzonitrile]	160		
COc1ccc2c(CN(c3ccc(C#N)cc3)n3ccnc3)csc2c1 [Ex 30, 4-{N-[1H-imidazol-1-yl]-N-[(6-methoxy-benzothien-3-yl)methyl]amino}benzonitrile]		0.06	
N#Cc1ccc(N(C(=O)Cc2ccc(F)cc2)n2ccnc2)cc1 [Ex 24, N-(1H-imidazol-1-yl)-N-(4-cyanophenyl)-2-(4-fluorophenyl)acetamide]	131		
N#Cc1ccc(N(Cc2ccc(O)c([N+](=O)[O-])c2)n2ccnc2)cc1 [Ex 20, 4-[N-(4-hydroxy-3-nitrophenylmethyl)-N-(1H-imidazol-1-yl)amino]benzonitrile]	205		0.3

Results, then the compound that gave them:

melting point [°C]	IC50 (human aromatase [1]) [nM]	IC50 (human aromatase [2]) [nM]	Compound
197			N#Cc1ccc(N(Cc2ccc(OS(N)(=O)=O)cc2NS(N)(=O)=O)n2ccnc2)cc1 [Ex 54, Sulfamic acid 3-(aminosulfonyl)amino-4-{[N-(4-cyanophenyl)-N-(1H-imidazol-1yl)amino]methyl}phenyl ester]
172		50.6	N#Cc1ccc(N(C(=O)CCc2ccc(O)cc2)n2ccnc2)cc1 [Ex 26, N-(4-cyanophenyl)-3-(4-hydroxyphenyl)-N-(1H-imidazol-1-yl)propanamide]
		0.32 ± 0.4	N#Cc1ccc(N(c2ccc([N+](=O)[O-])cc2)n2ccnc2)cc1 [Ex 22, 4-[N-(1H-imidazol-1-yl)-N-(4-nitrophenyl)amino]benzonitrile]
		0.67 ± 0.1	N#Cc1ccc(N(c2ccc(N)cc2)n2ccnc2)cc1 [Ex 40, 4-[N-(4-aminophenyl)-N-(1H-imidazol-1-yl)amino]benzonitrile]
	2.2 ± 0.7		N#Cc1ccc(N(Cc2ccc(O)c(N)c2)n2ccnc2)cc1 [Ex 35, 4-[N-(3-amino-4-hydroxy-phenylmethyl)-N-(1H-imidazol-1-yl)amino]benzonitrile]
195			N#Cc1ccc(N(Cc2ccc(O)c(Cl)c2)n2ccnc2)cc1 [Ex 12, 4-[N-(3-chloro-4-hydroxyphenylmethyl)-N-(1H-imidazol-1-yl)amino]benzonitrile]
243			N#Cc1ccc(N(Cc2c(F)c(F)c(O)c(F)c2F)n2ccnc2)cc1 [Ex 15, 4-[N-(2,3,5,6-tetrafluoro-4-hydroxyphenylmethyl)-N-(1H-imidazol-1-yl)amino]benzonitrile]
193			N#Cc1ccc(N(Cc2csc3cc(OS(N)(=O)=O)ccc23)n2ccnc2)cc1 [Ex 58, Sulfamic acid 3-{[N-(4-cyanophenyl)-N-(1H-imidazol-1yl)amino]methyl}-benzothien-6-yl ester]
104			COc1ccc2c(CC(=O)N(c3ccc(C#N)cc3)n3ccnc3)csc2c1 [Ex 29, N-(4-cyanophenyl)-N-(1H-imidazol-1-yl)-2-(6-methoxy-benzothien-3-yl)acetamide]
132			N#Cc1ccc(N(C(=O)c2ccc(Cl)nc2)n2ccnc2)cc1 [Ex 23, 6-chloro-N-(4-cyanophenyl)-N-(1H-imidazol-1-yl)nicotinamide]
187			COc1ccc(CN(c2ccc(C#N)cc2)n2ccnc2)cc1C(=O)O [Ex 21, 5-{[N-(4-cyanophenyl)-N-(1H-imidazol-1-yl)amino]methyl}-2-methoxybenzoic acid]
